Experimental data taken from US4837228A, “Antiinflammatory and antimicrobial compounds and compositions” (The University of Mississippi, priority 1982, dated 1989).
Values after ≈ are worked out from the molar mass of the structure shown. “Also recorded” adds a separate entry of the source. Read-outs that look alike come from different tables or passages of the source.

How the values were obtained:
[1] = tested on: carrageenan-induced rat paw edema; test: carrageenan-induced rat paw edema test, intraperitoneal dosing; type: in vivo; parameters: key to mean difference in volume (MDV): post-injection minus pre-injection mean paw volume
Experimental: Two methods were used to assess the antiinflammatory activity of the compounds of the invention: the carrageenan-induced rat paw edema test and, the erythrocyte membrane stabilization assay.
(§1) In the Rat Paw Edema Test, the rats utilized were divided into test groups of six to eight animals, weighed and marked so that individual rats could be identified; one hour before testing all rats were given a 700 mg/kg intraperitoneal injection of ethyl urethane in distilled water to render them tractable during testing. A circle was drawn, with a felt-tipped marker, around the hind leg of each rat just above the ankle, and each rat was dosed with a test or control compound by intraperitoneal injection. Negative control groups received the vehicle; while positive control groups received a dose of phenylbutazone (PBZ) as shown in Table II. Test compounds were given at doses of 60, 120, 240 and 480 mg/kg. The positive controls were given at 120 mg/kg and 60 mg/kg. Phenylbutazone was prepared for injection by suspending it in normal saline using Tween 60. The rats were then held in group cages for 30 minutes. The volume of the left hind paw was measured using a mercury displacement pleysmograph. The paw is dipped into the mercury until the mercury touches the line above the ankle. Mercury is then withdrawn until the mercury returns to its original level. The amount of mercury removed is measured in milliliters (ml). The mercury can be measured accurately to 0.01 ml. This left hind paw was then injected with 0.1 ml of a 5% w/v solution of viscous carageenan in normal saline. The injection was given between the metatarsal bones using a 27 gauge needle, and the rats then held in group cages for 3 hours. The volume of the left hind paws was measured again in the pleysmograph. The results were computed in the following manner:
(§2) a. A mean is taken for both the pre-injection and post-injection paw volume of each test group.
(§3) b. The mean difference in volume (MDV) for each test group is computed by subtracting the pre-injection means from the post-injection mean.
(§4) c. The percent of control is computed for each test [formula] The percent of control is used to compare the efficacy of the various drug treatments.
(§5) d. The percent increase in paw volume is calculated for each group as: [formula] The percent increase is used to compare the amount of edma observed in one experiment to the amount of edma observed in other experiments.
The data from the rat paw test were further analyzed using a one-way analysis of varience (ANOVA) and Duncan's New Multiple Range Test. The pre-injection score of each animal was subtracted from his post-injection score and an analysis of the different scores were conducted.
The procedure described above was followed. […] The vehicle control used was Tween 60, Arlacel and distilled water prepared without CBC(II).

[2] = tested on: erythrocyte (heat-induced hemolysis); test: erythrocyte membrane stabilization assay (heat-induced erythrocyte hemolysis); type: cell-based; details: Erythrocyte; for inhibition at 250 µM: 2.5 × 10^-4 M
Experimental: The published procedure (Proc. Soc. Exp. Biol. Med. 1967; 125; 837-842 Brow et al) for in vitro assay for antiinflammatory agents based on stabilization of erythrocytes was used. All compounds were prepared for administration by dissolving in physiologic saline or suspending in 2% ethanol in saline and the pH adjusted to 7.4 The concentrations tested in one series are given in Table 8. Aspirin (ASA) and phenylbutazone were used as positive controls for comparison of activity. Tests using this procedure were successfully and repeatedly using either 40% or 20% RBC suspensions.

[3] = deaths and adverse effects observed in the rat paw edema test; type: in vivo
Experimental: as §1
The eighth rat died within 24 hours of injection.

[4] = tested on: Bacillus subtilis; test: MIC, two-fold (broth) serial dilution, B. subtilis; type: cell-based; details: Bacillus subtilis, read-out: MIC
Experimental: (§6) Both qualitative and quantitative screens were performed. Qualitative screening was accomplished using the agar well diffusion assay technque while quantitative screening was accomplished by the two-fold (broth) serial dilution method to determine the minimum inhibitory concentration (MIC). Innoculation was accomplished with one loop-full of a 1:10 dilution of the 24-hour-old broth culture, (fungal cultures and M.smegmatis more often required 48 to 72 hours of incubation) of the test organisms in sterile water. Streptomycin sulfate was used as a positive control for antibacterial activity while amphitericin B was used as an antifungal positive control. Organisms utilized in the screens included gram-positive, gram-negative, and acid-fast bacteria as well as different types of fungi. […] An intermediate type activity is seen where R is hydrogen. However, where R is lengthened up to C15 a decrease in activity was noted. Total saturation of the two double bonds in the compounds having a methyl side chain lead, in most cases, to an increase in both antifungal and antibacterial activity.

[5] = tested on: Staphylococcus aureus; test: MIC, two-fold (broth) serial dilution, S. aureus; type: cell-based; details: Staphylococcus aureus, read-out: MIC
Experimental: as §6

[6] = tested on: Mycobacterium smegmatis; test: MIC, two-fold (broth) serial dilution, M. smegmatis; type: cell-based; details: Mycolicibacterium smegmatis, read-out: MIC
Experimental: as §6

[7] = tested on: Saccharomyces cerevisiae; test: MIC, two-fold (broth) serial dilution, S. cerevisiae; type: cell-based; details: Saccharomyces cerevisiae, read-out: MIC
Experimental: as §6

[8] = tested on: Trichophyton mentagrophytes; test: MIC, two-fold (broth) serial dilution, T. mentagrophytes; type: cell-based; details: Trichophyton mentagrophytes, read-out: MIC
Experimental: as §6

[9] = tested on: carrageenan-induced rat paw edema; test: carrageenan-induced rat paw edema test, oral gavage; type: in vivo; parameters: key to mean difference in volume (MDV): ml; post-injection minus pre-injection mean paw volume
Experimental: as §1, with “A circle was drawn, with a felt-tipped marker, around the hind leg of each rat just above the ankle, and each rat was dosed with a test or control compound by intraperitoneal injection.” left out
as §2, §3, §4, §5
[…] The test was conducted twice, once with nonfasted rats and once with rats that had been fasted during the 24 hour period prior to dosing. The 60 mg/kg phenylbutazone control group was not used in the test with fasted animals. Tween 60 in normal saline was the vehicle control for the non-fasted rats and normal saline was the vehicle control for the fasted rats.

[10] = Table 4, 60 mg/kg i.p., fasted rats
[11] = Table 4, 120 mg/kg i.p., fasted rats
[12] = Table 8, 1 × 10^-4 M, read-out: inhibition of heat-induced erythrocyte hemolysis
[13] = Table 6, 60 mg/kg oral, non-fasted rats
[14] = Table 6, 120 mg/kg oral, non-fasted rats
[15] = Table 7, 120 mg/kg oral, fasted rats, doses approximate

CC(C)=CCCC1(C)C=Cc2c(O)cc(C)cc2O1 (centres unmarked) [CBC (II), 2 methyl-2(4'-methyl-pent-3'-enyl)-5-hydroxy-7-metylchromene]
mean difference in volume (MDV) [1, 10]: 0.090
percent increase in paw volume [1, 10]: 6.742%
percent of control [1, 10]: 47.059%
mean difference in volume (MDV) [1, 11]: 0.070
percent increase in paw volume [1, 11]: 4.956%
percent of control [1, 11]: 36.601%
antiinflammatory activity compared with PBZ in words ([1]; i.p.): slightly less activity than PBZ at the 120 mg/kg dose; also recorded: as active at PBZ at 60 mg/kg
antiinflammatory effect in words ([1]; i.p.): active at both 60 mg/kg and 120 mg/kg
inhibition at 100 µM [2, 12]: 86%
toxic or adverse effects ([3]; 60 and 120 mg/kg i.p.): No toxic or adverse effects were observed
MIC ([4]; 24 h): 3.12 µg/mL (≈ 12.1 µM)
MIC ([4]; 48 h): 3.12 µg/mL (≈ 12.1 µM)
MIC ([5]; 24 h): 3.12 µg/mL (≈ 12.1 µM)
MIC ([5]; 48 h): 3.12 µg/mL (≈ 12.1 µM)
MIC ([6]; 24 h): 3.12 µg/mL (≈ 12.1 µM)
MIC ([6]; 48 h): 6.25 µg/mL (≈ 24.2 µM)
MIC ([7]; 48 h): 6.25 µg/mL (≈ 24.2 µM)
MIC ([7]; 72 h): 12.5 µg/mL (≈ 48.4 µM)
MIC ([8]; 48 h): 6.25 µg/mL (≈ 24.2 µM)
MIC ([8]; 72 h): 6.25 µg/mL (≈ 24.2 µM)

CCCCC1C(=O)N(c2ccccc2)N(c2ccccc2)C1=O [Phenylbutazone, reference compound]
inhibition at 60 mg/kg ([1]; Rattus norvegicus, ip, Table 5, 60 mg/kg i.p., * P = 0.01): 52%
inhibition at 120 mg/kg ([1]; Rattus norvegicus, ip, Table 5, 120 mg/kg i.p., * P = 0.01, read-out: inhibition of carrageenan-induced rat paw edema): 76%
percent increase in paw volume ([1]; Table 1, 120 mg/kg i.p.): 10.316%
percent of control ([1]; Table 1, 120 mg/kg i.p.): 22.973%
mean difference in volume (MDV) ([1]; Table 1, 120 mg/kg i.p., paw volume measured in ml): 0.106
group mean difference score ([1]; Table 3, 120 mg/kg): 0.016
difference of mean scores versus vehicle control (Duncan's test) ([1]; Table 3, 120 mg/kg, ** p 0.01): 0.356
difference of mean scores (Duncan's test) ([1]; Table 3, PBZ 120 mg/kg versus CBC 240 mg/kg): 0.102
difference of mean scores (Duncan's test) ([1]; Table 3, PBZ 120 mg/kg versus CBC 480 mg/kg, * p 0.05): 0.149
mean difference in volume (MDV) [1, 10]: 0.090
percent increase in paw volume [1, 10]: 6.742%
percent of control [1, 10]: 47.059%
mean difference in volume (MDV) [1, 11]: 0.046
percent increase in paw volume [1, 11]: 3.254%
percent of control [1, 11]: 24.183%
inhibition at 120 mg/kg ([9]; Rattus norvegicus, po, Table 5, 120 mg/kg oral, fasted rats, N.S., read-out: inhibition of carrageenan-induced rat paw edema): 36%
inhibition at 60 mg/kg ([9]; Rattus norvegicus, po, read-out: inhibition of carrageenan-induced rat paw edema, Table 5, 60 mg/kg oral, nonfasted rats, * P = 0.01): 37%
inhibition at 120 mg/kg ([9]; Rattus norvegicus, po, read-out: inhibition of carrageenan-induced rat paw edema, Table 5, 120 mg/kg oral, nonfasted rats): 22%
mean difference in volume (MDV) [9, 13]: 0.489
percent increase in paw volume [9, 13]: 50.257%
percent of control [9, 13]: 78.200%
mean difference in volume (MDV) [9, 14]: 0.392
percent increase in paw volume [9, 14]: 36.098%
percent of control [9, 14]: 62.667%
mean difference in volume (MDV) [9, 15]: 0.403
percent increase in paw volume [9, 15]: 31.051%
percent of control [9, 15]: 64.400%
antiinflammatory activity compared with PBZ in words ([9]; oral): slightly more effective than CBC at 120 mg/kg in the nonfasted rats
inhibition at 100 µM [2, 12]: 16%
inhibition at 20 µM ([2]; Table 8, 2 × 10^-5 M, read-out: inhibition of heat-induced erythrocyte hemolysis): 10%
inhibition at 250 µM ([2]; Table 9 Test 1 (20% RBC), read-out: percent inhibition of heat-induced erythrocyte hemolysis): 54%
inhibition at 25 µM ([2]; Table 9 Test 1 (20% RBC), 2.5 × 10^-5 M, read-out: percent inhibition of heat-induced erythrocyte hemolysis): 31%
inhibition at 250 µM ([2]; Table 9 Test 2 (40% RBC), read-out: percent inhibition of heat-induced erythrocyte hemolysis): 70%
inhibition at 20 µM ([2]; Table 9 Test 3 (20% RBC), 2.0 × 10^-5 M, read-out: percent inhibition of heat-induced erythrocyte hemolysis): 10%
inhibition at 250 µM ([2]; Table 9 Test 3 (20% RBC), read-out: percent inhibition of heat-induced erythrocyte hemolysis): 49%
inhibition at 100 µM ([2]; read-out: percent inhibition of heat-induced erythrocyte hemolysis, Table 9 Test 3 (20% RBC), 1.0 × 10^-4 M): 16%
inhibition at 20 µM ([2]; 2×10^-5 M, read-out: inhibition of heat-induced red cell hemolysis): 10%
inhibition at 100 µM ([2]; 10^-4 M, read-out: inhibition of heat-induced red cell hemolysis): 16%
deaths ([3]; 240 mg/kg i.p. plus ethyl urethane i.p., listed as PBZ): rapid deaths; also recorded: Seven of the eight animals receiving 240 mg/kg of PBZ died before the test could be completed
